Laboratory results reported in US20250296938A1, “Compounds that Interact with the Ras Superfamily for the Treatment of Cancers, Inflammatory Diseases, Rasopathies, and Fibrotic Disease” (SHY Therapeutics, LLC, priority 2018, published 2025).

Experiments:
[1] = tested on: AKT phosphorylation; assay: Western AKT cell-based phosphorylation assay, PANC-1; conditions: Homo sapiens
Method: Human tumor-derived pancreatic cancer cell line Panc-1 was purchased from American Type Culture Collection and grown in complete DMEM-High Glucose supplemented with penicillin (100 U/mL), streptomycin (100 μg/mL), and 10% heat-inactivated FBS at 37° C. in a humidified incubator with 5% CO2.
(§1) Method: Cells were plated at 350000 cells/well density in a 12-well plate, allowed 3 hours to adhere to the plate, then starved in the appropriate medium in the presence of 0.5% FBS overnight. The small molecules to be tested were added to the cells in the final concentration of 10 μM in the presence of 0.3% DMSO for 6 hours incubation at 37° C. Next, cells were stimulated with 1.5 ng/ml EGF for 15 minutes then cells were lysed with lysis buffer containing 1% Triton X-100, EDTA, and Halt™ Protease & Phosphatase Inhibitor Cocktail (Thermo Scientific). Protein concentration was assessed by BCA protein assay (Thermo Scientific). Phosphorylation level of Akt was determined by western blot.
(§2) Western blot protocol: Equal amounts of protein (15-50 μg) were separated by SDS-PAGE and transferred to nitrocellulose membranes (Invitrogen by Thermo Fisher Scientific). The membrane was stained with Ponceau S Stain (Boston BioProducts) to verify uniform protein loading. Membranes were blocked with 10% milk and phosphorylation levels of Akt were assessed by incubating overnight at 4° C. with anti-phospho-Akt (Ser473) antibody (Cell Signaling) followed by HRP-conjugated secondary antibody (Jackson Immunoresearch, West Grove, PA). Bands were incubated in Amersham ECL Prime Western Blotting Detection Reagent (GE Healthcare) and visualized using the ChemiDoc MP imaging system (Bio-Rad).

[2] = tested on: MAPK phosphorylation; assay: MAPK cell-based phosphorylation assay (ELISA or Western), PANC-1; conditions: Homo sapiens
Method: Cell lines: Tumor-derived pancreatic cancer cell line PANC-1 was purchased from ATCC and were and grown in DMEM-High Glucose supplemented with penicillin (100 U/mL), streptomycin (100 μg/mL), and 10% heat-inactivated FBS at 37° C. in a humidified incubator with 5% CO2.
Method: Cells were plated at 7500 cells/well density in a 96-well plate, allowed 3 hours to adhere to the plate, then starved in DMEM plus 0.5% FBS overnight. The small molecules to be tested were added to the cells in the final concentration of 10 μM in the presence of 0.3% DMSO for 6 hours incubation at 37° C. For IC50 value determination, serial dilutions of compounds were added to cells under the same conditions. Next, cells were stimulated with 1.5 ng/mL EGF for 15 minutes followed by cell fixation with 4% formaldehyde in PBS at room temperature for 20 minutes. Cell-direct ELISA determined phosphorylation level of MAPK.
Cell-direct ELISA: For each well, cells were permeabilized with 0.1% PBS-Triton X-100, quenched with 0.06% H2O2 in 0.1% PBS-Triton X-100, and probed with anti-phospho-MAPK antibodies (R&D Systems) followed by HRP-conjugated secondary antibody (Jackson Immunoresearch, West Grove, PA). Next, a 50 μM solution of the fluorescent substrate AmpliFlu Red (Sigma) was added and incubated at RT for 20 minutes. At the end of the incubation time, phosphorylation level of MAPK was determined by measuring fluorescence at 595 nm using SpectraMax M3 plate reader (Molecular Devices).
(§3) Cell lines: Human NSCLC cells NCI-H1975 and NCI-H1299, and tumor-derived pancreatic cancer cell lines Panc-1, MIA-PaCa-2, and BxPC3, were all purchased from American Type Culture Collection and grown in complete RPMI medium (BxPC3, NCI-H1975 and NCI-H1299) or DMEM-High Glucose (Panc1 and MIA-PaCa-2), supplemented with penicillin (100 U/mL), streptomycin (100 μg/mL), and 10% heat-inactivated FBS at 37° C. in a humidified incubator with 5% CO2.
as §1, with “C. For IC50 value determination, serial dilutions of compounds were added to cells under the same conditions.” for “C.”, “MAPK” for “Akt”
as §2, with “MAPK” for “Akt”, “anti-phospho-p44/42 (Thr202/Tyr204)” for “anti-phospho-Akt (Ser473)”

[3] = tested on: MIA PaCa-2 pancreatic cancer cell line; assay: Cell proliferation assay (DAPI); format: cell-based; conditions: Homo sapiens, MIA PaCa-2 (Table 5A); for inhibition at 10 µM: read-out: % Inhibition of cell proliferation, MIA PaCa-2 % inh
Method: as §3, with “MIA-PACA2,” for “MIA-PaCa-2,”
Method: Cells were plated at 2000 to 5000 cells/well density in 96-wells plate and cultured ON. Small molecules to be tested were added to the cells in the final concentration of 10 µM in the presence of 0.3% DMSO and 10% FBS, and incubated for 2-4 days at 37° C. in a humidified incubator with 5% CO2. For IC50 value determination, serial dilutions of compounds were added to cells under the same conditions.
Assay: At the end of the incubation period, cell cultures were fixed with a 50-50 mixture (v/v) acetone-methanol for 10 minutes at −20° C., followed by rehydration in PBS for 10 minutes at room temperature. DNA total content was determined by staining cells with DAPI (1 ug/ml) in PBS for 10 minutes at room temperature, followed by 3 washes with PBS. After staining, DAPI fluorescence was recorded (358 nm excitation/461 nm emission) with the 96-well plate reader Molecular Devices Spectramax M3; degree of small molecule-dependent proliferation inhibition was calculated from raw data.

[4] = 6 hours, EGF stimulation, PANC-1

Question: Which inhibition at 10 µM ([1]; PANC-1 (Table 4C)) does the source give for `COc1cccc(-c2sc3nc(C4=NC(C)=NC4C)nc(N[C@@H]4CC[C@H](OC)C4)c3c2C)c1F` (stereo partly shown) here?
Answer: 0%

Question: What about the inhibition at 10 µM ([2]; PANC-1 (Table 4C)) of the same compound?
Answer: 76 to 100%

Question: How did the inhibition at 10 µM ([1]; PANC-1 (Table 4C)) turn out when `CO[C@H]1CC[C@@H](Nc2nc(-c3nccn3C)nc3sc(-c4cccc5[nH]ncc45)c(C)c23)C1` was run?
Answer: 0%

Question: What about the inhibition at 10 µM ([2]; PANC-1 (Table 4C)) of the same compound?
Answer: 76 to 100%

Question: Which inhibition at 10 µM ([1]; PANC-1 (Table 4C)) does the source give for `Cn1ccc(-c2sc3nc(-c4nccn4C)nc(N[C@@H]4CC[C@H](O)C4)c3c2-c2ccccc2)n1` (racemic) [drawing 509] here?
Answer: 0%

Question: And the inhibition at 10 µM ([2]; PANC-1 (Table 4C))?
Answer: 26 to 50%

Question: For `COc1cccc(-c2csc3c(O)nc(-c4nccn4C)nc23)c1Cl` [drawing 386], which inhibition at 10 µM [1, 4] is on record?
Answer: 0%

Question: And the inhibition at 10 µM [2, 4]?
Answer: 26 to 50%

Question: With `Cn1ccnc1-c1nc(O)c2scc(-c3ccccn3)c2n1` [drawing 387] as the compound, how does the inhibition at 10 µM [1, 4] read?
Answer: 0%

Question: What about the inhibition at 10 µM [2, 4] of the same compound?
Answer: 0%

Question: With `Oc1nc(-c2ncc3n2CCCC3)nc2c(-c3ccccn3)csc12` [drawing 388] as the compound, how does the inhibition at 10 µM [1, 4] read?
Answer: 0%

Question: What about the inhibition at 10 µM [2, 4] of the same compound?
Answer: 0%

Question: Which results are given for `Oc1nc(-c2cn3ccccc3n2)nc2c(-c3ccccn3)csc12` [drawing 389]?
Answer: inhibition at 10 µM [1, 4]: 0%; inhibition at 10 µM [2, 4]: 26 to 50%

Question: `COCCn1ccnc1-c1nc(O)c2scc(-c3ccccn3)c2n1` [drawing 390] was tested. Which inhibition at 10 µM [1, 4] did it give?
Answer: 0%

Question: What about the inhibition at 10 µM [2, 4] of the same compound?
Answer: 51 to 75%

Question: Which results are given for `Cc1cc(Cn2ccnc2-c2nc(O)c3scc(-c4ccccn4)c3n2)on1` [drawing 391]?
Answer: inhibition at 10 µM [1, 4]: 0%; inhibition at 10 µM [2, 4]: 0%

Question: Which results are given for `Oc1nc(-c2nccn2Cc2ccccn2)nc2c(-c3ccccn3)csc12` [drawing 392]?
Answer: inhibition at 10 µM [1, 4]: 0%; inhibition at 10 µM [2, 4]: 51 to 75%

Question: Which results are given for `COc1cccc(Cn2ccnc2-c2nc(O)c3scc(-c4ccccn4)c3n2)c1` [drawing 393]?
Answer: inhibition at 10 µM [1, 4]: 0%; inhibition at 10 µM [2, 4]: 51 to 75%

Question: `Cc1cnc(-c2nc(O)c3scc(-c4ccccn4)c3n2)n1C` [drawing 394] was tested. Which inhibition at 10 µM [1, 4] did it give?
Answer: 0%

Question: What about the inhibition at 10 µM [2, 4] of the same compound?
Answer: 0%

Question: With `Cc1cn(C)c(-c2nc(O)c3scc(-c4ccccn4)c3n2)n1` [drawing 395] as the compound, how does the inhibition at 10 µM [1, 4] read?
Answer: 0%

Question: What about the inhibition at 10 µM [2, 4] of the same compound?
Answer: 0%

Question: With `Oc1nc(-c2ncc3ccccn23)nc2c(-c3ccccn3)csc12` [drawing 396] as the compound, how does the inhibition at 10 µM [1, 4] read?
Answer: 0%

Question: And the inhibition at 10 µM [2, 4]?
Answer: 0%

Question: With `Oc1nc(-c2cn3cccnc3n2)nc2c(-c3ccccn3)csc12` [drawing 397] as the compound, how does the inhibition at 10 µM [1, 4] read?
Answer: 0%

Question: And the inhibition at 10 µM [2, 4]?
Answer: 0%

Question: With `Oc1nc(-c2cn(-c3ccccc3)cn2)nc2c(-c3ccccn3)csc12` [drawing 398] as the compound, how does the inhibition at 10 µM [1, 4] read?
Answer: 0%

Question: And the inhibition at 10 µM [2, 4]?
Answer: 0%

Question: Which results are given for `COc1ccc(Cn2cnc(-c3nc(O)c4scc(-c5ccccn5)c4n3)c2)cc1` [drawing 399]?
Answer: inhibition at 10 µM [1, 4]: 0%; inhibition at 10 µM [2, 4]: 51 to 75%

Question: How did the inhibition at 10 µM [1, 4] turn out when `COCCCNc1nc(-c2nccn2C)nc2sc(-c3ccn(C)n3)c(-c3ccccc3)c12` [drawing 400] was run?
Answer: 0%

Question: And the inhibition at 10 µM [2, 4]?
Answer: 26 to 50%

Question: Which inhibition at 10 µM [1, 4] does the source give for `COCCCN(C)c1nc(-c2nccn2C)nc2sc(-c3ccn(C)n3)c(-c3ccccc3)c12` [drawing 401] here?
Answer: 0%

Question: What about the inhibition at 10 µM [2, 4] of the same compound?
Answer: 51 to 75%

Question: Which inhibition at 10 µM [1, 4] does the source give for `COCC(C)Nc1nc(-c2nccn2C)nc2sc(-c3ccn(C)n3)c(-c3ccccc3)c12` (stereo not shown) [drawing 402] here?
Answer: 0%

Question: What about the inhibition at 10 µM [2, 4] of the same compound?
Answer: 51 to 75%

Question: Which inhibition at 10 µM [1, 4] does the source give for `COC1CCN(c2nc(-c3nccn3C)nc3sc(-c4ccn(C)n4)c(-c4ccccc4)c23)C1` (stereo not shown) [drawing 403] here?
Answer: 0%

Question: What about the inhibition at 10 µM [2, 4] of the same compound?
Answer: 1 to 25%

Question: What does the source list for `Cn1ccc(-c2sc3nc(-c4nccn4C)nc(NC4CCOCC4)c3c2-c2ccccc2)n1` [drawing 404]?
Answer: inhibition at 10 µM [1, 4]: 1 to 25%; inhibition at 10 µM [2, 4]: 1 to 25%

Question: How did the inhibition at 10 µM [1, 4] turn out when `Cn1ccc(-c2sc3nc(-c4nccn4C)nc(NCC4CCOC4)c3c2-c2ccccc2)n1` (stereo not shown) [drawing 405] was run?
Answer: 0%

Question: What about the inhibition at 10 µM [2, 4] of the same compound?
Answer: 1 to 25%

Question: How did the inhibition at 10 µM [1, 4] turn out when `Cn1ccc(-c2sc3nc(-c4nccn4C)nc(N4CCC5(CCOC5)C4)c3c2-c2ccccc2)n1` (stereo not shown) [drawing 409] was run?
Answer: 0%

Question: What about the inhibition at 10 µM [2, 4] of the same compound?
Answer: 0%

Question: Which results are given for `COC1CCN(c2nc(-c3nccn3C)nc3sc(-c4ccn(C)n4)c(-c4ccccc4)c23)CC1` [drawing 410]?
Answer: inhibition at 10 µM [1, 4]: 0%; inhibition at 10 µM [2, 4]: 76 to 100%

Question: Which results are given for `COCCCNc1nc(-c2nccn2C)nc2sc(-c3ccn(C)n3)c(-c3ccc(OC)cc3)c12` [drawing 411]?
Answer: inhibition at 10 µM [1, 4]: 0%; inhibition at 10 µM [2, 4]: 0%

Question: How did the inhibition at 10 µM [1, 4] turn out when `COCC(C)Nc1nc(-c2nccn2C)nc2sc(-c3ccn(C)n3)c(-c3ccc(OC)cc3)c12` (stereo not shown) [drawing 412] was run?
Answer: 0%

Question: What about the inhibition at 10 µM [2, 4] of the same compound?
Answer: 1 to 25%

Question: Which IC50 ([2]; PANC-1) does the source give for `COc1cccc(-c2sc3nc(-c4nccn4C)nc(N4CCC(OC)C4)c3c2-c2ccccc2)c1F` (stereo not shown) [drawing 473] here?
Answer: > 1 µM

Question: With `CO[C@H]1CC[C@@H](Nc2nc(-c3nccn3C)nc3sc(-c4ccn(C(C)C)n4)c(-c4ccccc4)c23)C1` [drawing 475] as the compound, how does the IC50 ([2]; PANC-1) read?
Answer: > 1 µM

Question: `CO[C@H]1CC[C@@H](Nc2nc(-c3nccn3C)nc3sc(C(=O)NC(C)C)c(-c4ccccc4)c23)C1` [drawing 659] was tested. Which inhibition at 10 µM [3] did it give?
Answer: 76 to 100%

Question: What about the IC50 [3] of the same compound?
Answer: > 1 µM

Question: How did the inhibition at 10 µM [3] turn out when `COCCNC(=O)c1sc2nc(-c3nccn3C)nc(N[C@@H]3CC[C@H](OC)C3)c2c1-c1ccccc1` [drawing 660] was run?
Answer: 76 to 100%

Question: What about the IC50 [3] of the same compound?
Answer: > 1 µM

Question: `CO[C@H]1CC[C@@H](Nc2nc(-c3nccn3C)nc3sc(C(=O)N4CCCC4)c(-c4ccccc4)c23)C1` [drawing 661] was tested. Which inhibition at 10 µM [3] did it give?
Answer: 76 to 100%

Question: And the IC50 [3]?
Answer: > 1 µM

Question: `CO[C@H]1CC[C@@H](Nc2nc(-c3nccn3C)nc3sc(C(=O)N4CCOCC4)c(-c4ccccc4)c23)C1` [drawing 662] was tested. Which inhibition at 10 µM [3] did it give?
Answer: 51 to 75%

Question: And the IC50 [3]?
Answer: > 1 µM
